From patent publication US8524899B2, “Alternative heterocycles for DNA recognition” (California Institute of Technology, priority 2003, dated 2013)

Assays:
[1] = test system: 32P-3′-labeled EcoRI/PvuII restriction fragment of plasmid pDR1 (sites 5′-TGTCTA-3′, 5′-TGTTTA-3′, 5′-TGTATA-3′, 5′-TGTGTA-3′); experiment: Quantitative DNase I footprint titration on pDR1 restriction fragment; format: binding
Protocol: FIG. 4 illustrates the equilibrium association constants Ka[M^−1] for Polyamide Oligomers A-C, N, Q, and P. The reported association constants are the average values obtained from three DNase I footprint titration experiments, with the standard deviation for each data set indicated in the experiments. Assays were carried out at 22° C. at pH 7.0 in the presence of 10 mM Tris-HCl, 10 mM KCl, 10 mM MgCl2, and 5 mM CaCl2 with an equilibration time of 12 h. Specificities are give in brackets under the Ka values and calculated as Ka (match)/Ka (mismatch).
To examine whether an imidazo[4,5-b]pyridine unit Ip can replace a five-membered imidazole ring Im within an eight-ring hairpin polyamide regarding DNA binding affinity and specificity, polyamide oligomer A and its related all five-membered ring hairpin oligomer N were evaluated by DNase I footprint titrations under identical conditions. Quantitative DNase I footprint titration experiments (10 mM Tris-HCl, 10 mM KCl, 10 mM MgCl2, 5 mM CaCl2, pH 7.0, 22° C., equilibration time: 12 h) were performed on a ^32P-3′-labeled EcoRI/PvuII restriction fragment of plasmid pDR1 0 (FIG. 2). This DNA fragment contains four 6-base pair binding sites which differ at one position, 5′-TGTCTA-3′,5′-TGTTTA-3′,5′-TGTATA-3′, and 5′-TGTGTA-3′. The latter one was regarded as the possible match site having a G•C base pair under the Ip/Py or Im/Py pair, respectively.
Construction of plasmid DNA. The plasmid pDR1 was constructed by hybridization of the two oligonucleotides 5′-GATCAGGCTGTC-[…]-GCTGCTGTTTATGGACG-GCTGCTGTATATGGACGG-CTGGGCGA-3′ (SEQ ID NO:1) and 5′-AGCTTCGC-[…]-[…]-3′ (SEQ ID NO:2) followed by ligation into the BamHI/HinDIII restriction fragment of pUC19 using T4 DNA ligase. The resultant plasmid was then used to transform E. coli XL-1 Blue Supercompetent cells. Ampicillin-resistant white colonies were selected from 25 mL Luria-Bertani agar plates containing […] ampicillin, treated with XGAL and IPTG solutions and grown overnight at 37° C. Cells were harvested after overnight growth at 37° C. Large-scale plasmid purification was performed with Qiagen, purification kits. The presence of the desired insert was determined by dideoxy sequencing. DNA concentrations were determined at 260 nm using the relationship 1 OD unit) 50 μg/mL duplex DNA.
Preparation of 3′-End-Labeled DNA Restriction Fragments. The plasmid pDR1 was linearized with EcoRI and PVuII and treated with the Klenow fragment of DNA […], [R-^32P]-dATP, and [R-^32P]-TTP for 3′-end labeling. The labeled 3′-fragment was purified on a 7% nondenaturing polyacrylamide gel (5% cross-linkage) and the desired 284 base pair band isolated after visualization by autoradiography. The DNA was precipitated with 2-propanol, the pellet washed, lyophilized, and resuspended in RNase-free H2O. Chemical sequencing reactions were performed according to published protocols. (Troschütz, R.; Lückel, A. Arch. Pharm., 325, 617-619, 1992.)
DNase I Footprinting. All reactions were carried out in a volume of 400 μL according to published procedures. Quantitation by storage phosphor autoradiography and determination of equilibrium association constants were as previously described. (Trauger, J. W.; Dervan, P. B. Methods Enzymol., 340, 450-466, 2001.)

[2] = Stability at acidic pH; format: physicochemical
[3] = test system: EcoRI/PvuII restriction fragment of plasmid pPWF2 (5′-TGRACA-3′); experiment: Quantitative DNase I footprint titration, R•S position, plasmid pPWF2; format: binding; conditions: for match site Ka, R•S position: 5′-TGRACA-3′ match site, pH 7.0, 22° C., 12 h; for match site affinity compared with related all five-membered oligomer, R•S position / single base pair mismatch specificities compared with related oligomer, R•S position: D vs R, F vs V
Text: (§1) FIG. 9 illustrates the equilibrium association constants Ka[M^−1] and specificities for polyamide oligomers D-F, R, S, and V on plasmids pPWF2 and pCAB1 (R•S position).
(§2) When replacing PyPy, PyIm, and PyHp dimers with BiPy (as in oligomer D), BiIm (as in oligomer E), and BiHp constructs (as in oligomer F), respectively, the question arises whether a) the benzimidazole ring is capable of cooperating with the imidazole ring on the opposite strand of the hairpin polyamide to specifically recognize a C•G base pair according to the binding model and the general pairing rules, and b) whether the steric and electronic peculiarities of the benzimidazole ring disturb the binding ability of the adjacent heterocycle. In order to address this question for the given polyamide design, the recognition behavior of the benzimidazole-containing polyamides was probed in two of the six base pair positions R•S and X•Y of the recognition sequence (5′-TGRACA-3′ and 5′-TGGXCA-3′ for oligomers D and F; 5′-TGRCAA-3′ and 5′-TGGXAA-3′ for oligomer E; FIG. 6) and compared with the DNA-binding ability of the related all five-membered oligomers R, S, and V at the same recognition sequences.
(§3) Evaluation of the DNA recognition properties of the new ligands oligomers D, E, and F at the imidazole/benzimidazole position (referred to as R•S position) should reveal the sequence preference of the benzimidazole ring. The binding properties at the neighboring ring position (referred to as X•Y position) were expected to disclose whether the recognition capabilities of the adjacent internal five-membered ring are disturbed by the benzimidazole moiety. To examine the consequences of the ring replacement for DNA binding in terms of affinity and specificity, the benzimidazole-containing hairpin polyamides oligomers D, E, and F were evaluated by quantitative DNase I footprint titrations and the results compared to those from related oligomers R, S, and V, which were investigated under identical conditions. Quantitative DNase I footprint titration experiments (10 mm Tris-HCl, 10 mm KCl, 10 mm MgCl2, 5 mm CaCl2, pH 7.0, 22° C., equilibration time: 12 h) were performed on ^32P-3′-labeled EcoRI/PvuII restriction fragments of plasmids pPWF2 and pCAB1 (to probe the R•S position, FIG. 7); and pAU2 and pCAB2 (to probe the X•Y position, FIG. 8). Equilibrium association constants (Ka) for the polyamide oligomers at the binding sites of interest were determined as described above in Example 3.

[4] = test system: EcoRI/PvuII restriction fragment of plasmid pAU2 (5′-TGGXCA-3′); experiment: Quantitative DNase I footprint titration, X•Y position, plasmid pAU2; format: binding; conditions: match and mismatch sites
Text: FIG. 10 illustrates the equilibrium association constants Ka[M^−1] and specificities for polyamide oligomers D-F, R, S, and V on plasmids pAU2 and pCAB2 (X•Y position). […]
as §3, with “The binding properties at the neighboring ring position (referred to as X•Y position) were expected to disclose whether the recognition capabilities of the adjacent internal five-membered ring are disturbed by the benzimidazole moiety.” left out

[5] = test system: EcoRI/PvuII restriction fragment of plasmid pCAB1 (5′-TGRCAA-3′); experiment: Quantitative DNase I footprint titration, R•S position, plasmid pCAB1; format: binding
Text: as §1, §2, §3

[6] = test system: EcoRI/PvuII restriction fragment of plasmid pCAB2 (5′-TGGXAA-3′); experiment: Quantitative DNase I footprint titration, X•Y position, plasmid pCAB2; format: binding
Text: FIG. 10 illustrates the equilibrium association constants Ka[M^−1] and specificities for polyamide oligomers D-F, R, S, and V on plasmids pAU2 and pCAB2 (X•Y position).
When replacing PyPy, PyIm, and PyHp dimers with BiPy (as in oligomer D), BiIm (as in oligomer E), and BiHp constructs (as in oligomer F), respectively, the question arises whether a) the benzimidazole ring is capable of cooperating with the imidazole ring on the opposite strand of the hairpin polyamide to specifically recognize a C•G base pair according to the binding model and the general pairing rules, and b) whether the steric and electronic peculiarities of the benzimidazole ring disturb the binding ability of the adjacent heterocycle. […]
as §3, with “The binding properties at the neighboring ring position (referred to as X•Y position) were expected to disclose whether the recognition capabilities of the adjacent internal five-membered ring are disturbed by the benzimidazole moiety.” left out

[7] = test system: 5′-AGWWCT-3′ (W=A, T); experiment: DNase I footprint titration, multiple Hz/Py pairs; format: binding
Protocol: FIG. 17 is a table showing the association equilibrium constant Ka[M^−1] for polyamide oligomers H and K. The reported association constants are the average values obtained from three DNase I footprint titration experiments, with the standard deviation given in parenthesis. Assays were carried out at 22° C. at pH 7.0 in the presence of 10 mM Tris-HCl, 10 mM KCl, 10 mM MgCl2, and 5 mM CaCl2 at pH 7.0.
For polyamides Im-Hz-Py-Py-γ-Im-Hz-Py-Py-β-Dp (oligomer H) and Im-Py-Hz-Py-γ-Im-Py-Hz-Py-β-Dp (oligomer K) the ability of multiple Hz/Py pairs to distinguish poly A,T sequences was tested by varying two DNA base pairs across from the Hz/Py and Py/Hz pairs (bolded in the sequences listed above) within the parent-sequence context, 5′-AGWWCT-3′, (W=A, T) and comparing the relative affinities of the resulting complexes (FIG. 16). Equilibrium association constants (Ka) for polyamide oligomers containing multiple Hp/Py pairs have been reported and are included for comparison with values presented here (FIG. 17). […] The recognition profiles of polyamide oligomers containing multiple Hz/Py pairs (oligomers H and K) are similar to those reported for multiple Hp/Py pairs.
Footprinting Experiments.—Plasmids pDHN1 and pDEH10 were constructed and 5′-radiolabeled as previously described. […]

CNC(=O)c1cc(NC(=O)c2cc(NC(=O)c3cc(NC(=O)c4cc(NC(=O)[C@H](N)CCNC(=O)c5cc(NC(=O)c6ccc7nc(-c8cc(NC(=O)c9nccn9C)cn8C)[nH]c7c6O)cn5C)cn4C)cn3C)cn2C)cn1C [B]
selectivity of T•A over A•T ([1]; 5′-TGTTTA-3′ vs A•T site): 18 fold | binding at C•G site ([1]; C•G site (5′-TGTCTA-3′), for Q concentration range up to 200 nM): No binding was observed | lower affinity at G•C mismatch site 5′-TGTGTA-3′ ([1]; relative to match site 5′-TGTTTA-3′): at least 80 fold | equilibrium association constant Ka ([1]; site 5′-TGTTTA-3′ (T•A), pH 7.0, 22° C., equilibration 12 h): 5.7e+08 M⁻¹ | stability at acidic pH [2]: stable

CNC(=O)c1cc(NC(=O)c2ccc3nc(-c4cc(NC(=O)c5nc(NC(=O)[C@H](N)CCNC(=O)c6cc(NC(=O)c7cc(NC(=O)c8nc(NC(=O)c9nccn9C)cn8C)cn7C)cn6C)cn5C)cn4C)[nH]c3c2)cn1C [D]
match site Ka, R•S position [3]: 4.9e+10 M⁻¹ | match site affinity compared with related all five-membered oligomer, R•S position [3]: comparable | single base pair mismatch specificities compared with related oligomer, R•S position [3]: lower by roughly one order of magnitude | binding affinities and specificities compared with related oligomers R, V, X•Y position [4]: same order of magnitude

CNC(=O)c1cc(NC(=O)c2ccc3nc(-c4nc(NC(=O)c5cc(NC(=O)[C@H](N)CCNC(=O)c6cc(NC(=O)c7cc(NC(=O)c8nc(NC(=O)c9nccn9C)cn8C)cn7C)cn6C)cn5C)cn4C)[nH]c3c2)cn1C [E]
match site Ka, R•S position ([5]; 5′-TGRCAA-3′ match site, pH 7.0, 22° C., 12 h): 3.1e+10 M⁻¹ | match site affinity compared with related all five-membered oligomer, R•S position ([5]; E vs S): six to seven-fold higher | match site/mismatch site discrimination compared with related oligomer, R•S position ([5]; R=A): comparable | match site/mismatch site discrimination compared with related oligomer, R•S position ([5]; R=T or C): at least ten-fold lower | match site Ka, X•Y position ([6]; 5′-TGGXAA-3′ match site, pH 7.0, 22° C., 12 h): 1.9e+10 M⁻¹ | match site affinity compared with related oligomer S, X•Y position ([6]; E vs S): six-fold higher | single base pair mismatch specificities compared with related oligomer S, X•Y position ([6]; E vs S): mildly diminished

CNC(=O)c1cc(NC(=O)c2ccc3nc(-c4c(O)c(NC(=O)c5nc(NC(=O)[C@H](N)CCNC(=O)c6cc(NC(=O)c7cc(NC(=O)c8nc(NC(=O)c9nccn9C)cn8C)cn7C)cn6C)cn5C)cn4C)[nH]c3c2)cn1C [F]
match site Ka, R•S position [3]: 2.5e+10 M⁻¹ | match site affinity compared with related all five-membered oligomer, R•S position [3]: six to seven-fold higher | single base pair mismatch specificities compared with related oligomer, R•S position [3]: comparable | binding affinities and specificities compared with related oligomers R, V, X•Y position [4]: same order of magnitude

CN(C)CCCNC(=O)CCNC(=O)c1cc(NC(=O)c2cc(NC(=O)c3ccc4nc(-c5nc(NC(=O)CCCNC(=O)c6cc(NC(=O)c7cc(NC(=O)c8ccc9nc(-c%10nccn%10C)[nH]c9c8O)cn7C)cn6C)cn5C)[nH]c4c3O)cn2C)cn1C [H]
specificity for match sequence 5′-AGTACT-3′ over 5′-AGAACT-3′ and 5′-AGATCT-3′ [7]: greater than 14 fold

CN(C)CCCNC(=O)CCNC(=O)c1cc(NC(=O)c2ccc3nc(-c4cc(NC(=O)c5nc(NC(=O)CCCNC(=O)c6cc(NC(=O)c7ccc8nc(-c9cc(NC(=O)c%10nccn%10C)cn9C)[nH]c8c7O)cn6C)cn5C)cn4C)[nH]c3c2O)cn1C [K]
specificity for match sequence 5′-AGTACT-3′ over 5′-AGAACT-3′ and 5′-AGATCT-3′ [7]: poor site selectivity
